Results as given in patent US20220273660A1, “MEK INHIBITOR FOR TREATMENT OF STROKE” (EDVINCE AB, priority 2019, published 2022).
“Also recorded” adds a separate entry of the source.

Columns and labels:
[1] = system: rat middle cerebral arteries; experiment: Contraction of middle cerebral arteries 48 h after tMCAO, wire myograph; details: for agonist-mediated contraction (% of maximum potassium-mediated contraction): occluded MCAs, 48 h after tMCAO, mean±SD
Experimental: Mean arterial blood pressure, pCO2, pO2, pH and plasma glucose were measured prior to the occlusion through an arterial tail catheter (Radiometer; LabChart). A rectal thermometer connected to a homoeothermic blanket was used to maintain body temperature at +37° C. during the surgical procedure. An incision was made in the midline of the neck exposing the right common, internal and external carotid arteries. The common and external carotid arteries were permanently ligated by sutures and an incision was made in the common carotid artery. A laser Doppler probe (Perimed, Järfälla, Sweden) was fixed to the thinned skull in the area corresponding to the area supplied by the middle cerebral artery (1 mm posterior to bregma and 6 mm to the right from the midline). A silicone, rubber-coated monofilament (Doccol Corporation, Redlands, Calif., USA) was inserted through the incision until the tip reached the entrance of the right middle cerebral artery (MCA). The occlusion was confirmed by an abrupt reduction of cortical blood flow that was observed using laser Doppler monitoring. After securing the filament, the skin was sutured and anesthesia was discontinued. After two hours of occlusion, the rats were briefly re-anesthetized to remove the filament and allow reperfusion. […] The animals were allowed to recover 48 hours after surgery with free access to food and water before they were anesthetized with CO2 and decapitated. The brains were removed and immediately chilled in ice-cold bicarbonate buffer solution (for composition, see Drugs, Chemicals and Solutions). Right (occluded) and left (non-occluded) middle cerebral arteries were dissected free from adhering tissue and used for myograph studies.
Contractile properties of middle cerebral arteries were examined using a wire Mulvany-Halpern myograph that records isometric tension (Danish Myo Technology A/S, Aarhus, Denmark). Arteries were cut into cylindrical segments (2 mm), and mounted in the myographs by two parallel 40 μm wires inserted through the lumen. The myograph baths contained 5 ml +37° C. bicarbonate buffer solution (for composition, see Drugs, Chemicals and Solutions) continuously aerated with 5% carbon dioxide in oxygen resulting in pH 7.4. […] The other wire was connected to a force displacement transducer attached to an analogue-digital converter (AD Instruments, Chalgrove, UK). The results were recorded on a computer using a Power Lab unit (AD instruments) and the software LabChart (ADInstruments). After the normalization procedure, the arteries were allowed to equilibrate at this tension for 20 min.
The maximum potassium-mediated contraction was used as a reference value (=100%) for contractile capacity. To eliminate endothelial influence, the production of nitric oxide and prostaglandins was blocked with 100 μM L-NG-nitroarginine methyl ester (L-NAME) and 10 μM indomethacin, respectively, which were present in the tissue baths throughout the experiments on the arteries from the in vivo stroke model.
Receptors for 5-hydroxytryptamine receptors (5-HT) were evaluated by adding 5-carboxamidotryptamine (5-CT, a non-selective 5-HT1 agonist) in concentrations ranging from 10^−11 to 10^−5M (Hansen-Schwartz). The angiotensin type 1 (AT1) receptor was evaluated by cumulative applications of Angiotensin II in concentrations ranging from 10^−12 to 10^−6 M. 30 minutes prior to the experiment, the AT2 receptor antagonist PD123319 was added to eliminate any AT2 receptor-mediated effects. […]

[2] = system: rat basilar arteries (contractile ETB receptors); experiment: 48 h organ culture of basilar artery, S6c (ETB agonist)-induced contraction in wire myograph; format: cell-based; details: for inhibition of S6c-induced contraction (initial screening groups): 1 μM inhibitor, S6c contraction relative to 60 mM K+; for inhibition of S6c-induced contraction (initial screening groups) / IC50: 48 h organ culture; for IC50: Rattus norvegicus, inhibition of S6c-induced contraction, read-out: pIC50 (based on the Emax for S6c) (converted)
Experimental: (§1) Rats were sedated with O2/CO2 (30/70%) and sacrificed by decapitation. Brains were gently removed and chilled in a cold oxygenated buffer solution of the following composition: 119 mM NaCl, 4.6 mM KCl, 1.5 mM CaCl2, 1.2 mM MgCl2, 1.2 mM NaH2PO4, 15 mM NaHCO3 and 5.5 mM Glucose; pH 7.4. The basilar artery (BA) was carefully dissected from the brain in a physiological buffer solution followed by either OC (naïve animals) or directly mounted in a wire myograph (arteries from rats which has undergone surgical procedures). Segments were incubated for 48 hours at 37° C. in humidified 5% CO2/O2 in DMEM supplemented with streptomycin and penicillin with inhibitors or vehicle (DMSO). Culture media was changed after 24 hours.
(§2) For contractility measurements, both incubated BAs (ex vivo) and BAs after surgical procedure (in vivo) were cut into segments and mounted on a pair of metal wires (40 μm) in a myograph bath. The arteries from OC were mounted the same way after 48 hours in media. One wire was attached to a micro-meter screw which allows for fine adjustments of the distance between the wires, controlling the vascular tone.
(§3) The segments were equilibrated in physiological buffer aerated with 95% O2/5% CO2, pH of 7.4, temperature set at 37° C. and the wires were separated for isometric pretension at 2 Nm^−1. The arterial segments were exposed two or three times with 60 mM K^+, by exchanging the buffer with a 60 mM K^+ buffer solution. To maintain equal osmolarity, a proportional amount of Na^+ had been removed from the buffer. An absolute cut-off was set at 2.0 mN K^+max for inclusion of arterial segments from rats that underwent the surgical procedure. Endothelium function was evaluated with the addition of 5-HT (3.10^−7 M) followed by carbachol (10^−5 M). For arteries from the OC the protocol was as followed: first a cumulative concentration-response curve to sarafotoxin 6C (S6c, 10^−14-10^−7 M), followed by a concentration-response curve to endothelin-1 (ET-1, 10^−14-10^−7 M). At peak ET-1 (10^−7 M), the buffer was changed to a Ca^2+-free buffer containing 10^−7 M ET-1 and nimodipine (L-type of voltage dependent Ca^2+ channel entry blocker, 10^−7 M). A concentration-response curve to Ca^2+ (0.0125-3 mM) was then performed. When vasodilation was investigated arteries was precontracted with U46619 (1.10^−7-3.10^−7 M) or K^+ (41 mM) and cumulative concentration-response curves was performed by adding calcitonin gene-related peptide (CGRP, 10^−12-10^−7 M), carbachol (10^−10-10^−5 M) or SNP (10^−11-10^−4 M).
(§4) Contractile responses of each segment were adjusted according to the length of the artery and are expressed as mN/mm (Nm^−1). […] To compare ET-1 sensitivity, arteries were normalized to the percentage of the individual vessel ET-1max. When the artery reached maximum contraction before the last concentration was added, the curves were constrained to the max contraction. The relative log IC50/log EC50 is the concentration corresponding to a response midway between the estimates of the lower and upper plateaus. The Emax is the maximal contraction in the concentration response curve and ET-1max is the maximal contraction to ET-1. All quantitative data is presented as mean±standard error of the mean (SEM), unless otherwise stated.

[3] = system: rat basilar arteries; experiment: 48 h organ culture of basilar artery, endothelium function / vasodilation (carbachol, SNP, CGRP); format: cell-based; details: 1 μM inhibitor; for endothelium function (10-5 M carbachol on arteries precontracted with 5-HT) vs DMSO: 48 h organ culture
Experimental: as §1, with “Brains were gently removed and chilled in a cold oxygenated buffer solution of the following composition: 119 mM NaCl, 4.6 mM KCl, 1.5 mM CaCl2, 1.2 mM MgCl2, 1.2 mM NaH2PO4, 15 mM NaHCO3 and 5.5 mM Glucose; pH 7.4.” left out
as §2
as §3, with “The” for “The segments were equilibrated in physiological buffer aerated with 95% O2/5% CO2, pH of 7.4, temperature set at 37° C. and the wires were separated for isometric pretension at 2 Nm^−1. The”, “A concentration-response curve to Ca^2+ (0.0125-3 mM) was then performed.” left out

[4] = system: rat subarachnoid haemorrhage model; experiment: Rat SAH model, intrathecal treatment, myograph of basilar arteries; format: in vivo
Experimental: as §2
as §3, with “The” for “The segments were equilibrated in physiological buffer aerated with 95% O2/5% CO2, pH of 7.4, temperature set at 37° C. and the wires were separated for isometric pretension at 2 Nm^−1. The”, “A concentration-response curve to Ca^2+ (0.0125-3 mM) was then performed.” left out
If there was only one curve above the cut-off, the concentration-response curve to ET-1 was prioritized. Segments with the highest K^+ response were generally allocated to the concentration-response curve to ET-1. […] The Ca^2+ free buffer solution had similar composition as above, but 1.5 mM CaCl2 was exchanged with 0.03 mM EDTA.
as §4
Rats were anesthetized and prepared for cisternal infusion of autologous blood, which simulates a SAH. Sham-operated rats went through the same procedure, omitting the intracisternal blood injection of 300 μL. At the end of the procedure, a PinPort (PNP3F22, Instech, US) was placed at the end of the ICP catheter to provide access for intrathecal (i.t.) injectable treatments by a PinPort injector (PNP-3M, Instech, US). 24 hours post-surgery, the rats received s.c. injections of Carprofen (Norodyl, 5 mg/kg) (Scanvet, Denmark) for analgesia.
The intrathecal (i.t.) treatment volumes were estimated for a cerebrospinal fluid (CSF) volume of approximately 90 μL (21) and the total dose was administered as three treatments (4 hours, 10 hours and 24 hours) through the PinPort in the ICP catheter placed in the cisterna magna during the surgical procedure. The first and third injections were given under fixation of the rat. […] Animals were given 2.5 ml isotonic saline s.c. to avoid dehydration, immediately after surgery and in conjunction with the 10 hours and 24 hours treatments.

[5] = system: rat middle cerebral arteries (ETB receptor); details: former studies, same in vitro setup; cited from earlier work
[6] = system: rat basilar arteries (contractile ETB receptors); details: cited from earlier work
[7] = Solubility (statement); format: physicochemical

| Compound | inhibition of S6c-induced contraction (initial screening groups) [2] | IC50 [2] [nM] | endothelium function (10-5 M carbachol on arteries precontracted with 5-HT) vs DMSO [3] | also measured |
| --- | --- | --- | --- | --- |
| NCCc1c[nH]c2ccc(C(N)=O)cc12 [5-CT, 5-carboxamidotryptamine] | – | – | – | agonist-mediated contraction (% of maximum potassium-mediated contraction) ([1]; intact females): 27±18%; agonist-mediated contraction (% of maximum potassium-mediated contraction) ([1]; ovariectomized females): 8±11% |
| Cn1cnc2c(F)c(Nc3ccc(Br)cc3F)c(C(=O)NOCCO)cc21 [Binimetinib] | Some effect | 6760 | – | – |
| O=C(c1ccc(F)c(F)c1Nc1ccc(I)cc1F)N1CC(O)([C@@H]2CCCCN2)C1 [Cobimetinib] | Highly effective | 56.2 | – | – |
| O=C(NOC[C@H](O)CO)c1ccc(F)c(F)c1Nc1ccc(I)cc1F [PD0325901] | Highly effective; also recorded: almost completely inhibited | 19.5 | significant better endothelium function; also recorded: significant increase | Emax following NO donor sodium nitroprusside (SNP) ([3]; 48 h OC): significant differences in the Emax; response to CGRP ([3]; 48 h OC): No differences; vasodilation in response to carbachol (10^-10-10^-5 M) ([3]; 48 h OC, precontracted with U46619 or K+): improved vasodilation; estimated inhibitor effect in the ex vivo OC study ([2]; at predicted CSF concentration of approximately 10^-7 M): ~75%; nimodipine insensitive ET-1max contraction ([4]; SAH + i.t. treatment, Ca2+ curve, 10^-7 M nimodipine): 1.0±0.3 Nm^−1; endothelium function ([4]; animals treated in vivo i.t. after SAH): No significant changes |
| CNS(=O)(=O)Nc1nccc(Cc2c(C)c3ccc(Oc4ncccn4)cc3oc2=O)c1F [RO5126766] | Some effect | 2090 | – | – |
| COc1cc(F)c(F)c(Nc2ccc(I)cc2F)c1NS(=O)(=O)C1(C[C@H](O)CO)CC1 [Refametinib] | Borderline effective | – | – | – |
| Cn1c(=O)c(F)c(Nc2ccc(I)cc2F)c2c(=O)n(C[C@@H](O)CO)cnc21 [TAK-733] | Highly effective | 129 | significant better endothelium function; also recorded: significant increase | – |
| N#CC(=C(/N)Sc1ccccc1N)/C(C#N)=C(\N)Sc1ccccc1N [U0126] | Not effective; also recorded: no significant effect | – | poor endothelial response | concentration used for equivalent inhibition of ETB-receptor mediated contraction [5]: 10 µM; effect on ETB specific S6c-induced contractility ([6]; 10 μM, 48 hours OC, known from earlier work): inhibitory effect; established threshold for efficacy ([6]; used till date): 10 µM; solubility [7]: poor solubility |
| CC(=O)[C@H]1CC[C@H]2[C@@H]3CCC4=CC(=O)CC[C@]4(C)[C@H]3CC[C@]12C [progesterone] | – | – | – | maximum contractile responses of occluded and non-occluded arteries to S6c, Ang II or 5-CT vs placebo ([1]; ovariectomized rats treated 3 weeks, tMCAO): not affected |
| sarafotoxin 6c [S6c] | – | – | – | agonist-mediated contraction (% of maximum potassium-mediated contraction) ([1]; intact females): 22±16%; agonist-mediated contraction (% of maximum potassium-mediated contraction) ([1]; ovariectomized females): 8±9% |
